In PubChem BioAssay AID248 (DTP/NCI, 2004):
Several values for one entry are separate records, joined by “and”; a condition that tells them apart may be missing. Equal entries are not always repeated. Inconclusive results and toxic doses are left out. No stated cut-off is given here; in the data, active means T/C of 150% or more; inactive means T/C below 125%.

Tested on: L1210 leukemia ip in BDF1 mice, survival T/C
Test: NCI In Vivo Anticancer Drug Screen. Data for tumor model L1210 Leukemia (intraperitoneal) in B6D2F1 (BDF1) mice
Settings: endpoint: mean survival time, higher = longer survival
Method in brief: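 Read-out is survival time, reported as the treated-group measurement over the vehicle-control measurement.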

[1] = dose: 50.0 mg/kg/injection, schedule: Q04DX003 (ip), vehicle: saline
[2] = dose: 100.0 mg/kg/injection, schedule: Q04DX003 (ip), vehicle: saline
[3] = dose: 200.0 mg/kg/injection, schedule: Q04DX003 (ip), vehicle: saline
[4] = dose: 400.0 mg/kg/injection, schedule: Q04DX003 (ip), vehicle: saline
[5] = dose: 100.0 mg/kg/injection, schedule: Q01DX001 (ip), vehicle: carboxymethylcellulose (CMC)
[6] = dose: 100.0 mg/kg/injection, schedule: Q04DX003 (ip), vehicle: Klucel (hydroxypropylcellulose) (HPC)
[7] = dose: 200.0 mg/kg/injection, schedule: Q04DX003 (ip), vehicle: Klucel (hydroxypropylcellulose) (HPC)
[8] = dose: 400.0 mg/kg/injection, schedule: Q04DX003 (ip), vehicle: Klucel (hydroxypropylcellulose) (HPC)
[9] = dose: 100.0 mg/kg/injection, schedule: Q01DX009 (ip), vehicle: saline with Tween-80
[10] = dose: 200.0 mg/kg/injection, schedule: Q01DX009 (ip), vehicle: saline with Tween-80
[11] = dose: 400.0 mg/kg/injection, schedule: Q01DX009 (ip), vehicle: saline with Tween-80
[12] = dose: 100.0 mg/kg/injection, schedule: Q01DX009 (ip), vehicle: Klucel (hydroxypropylcellulose) (HPC)
[13] = dose: 100.0 mg/kg/injection, schedule: Q01DX009 (ip), vehicle: saline

Measured: T/C

COC1C(O)C(O)OC(CO)C1O (configuration not stated)
inactive: [1] 112 % of control | [2] 96 % of control | [3] 104 % of control | [4] 96 % of control | dose: 500.0 mg/kg/injection, schedule: Q01DX009 (ip), vehicle: saline 94 % of control | dose: 1000.0 mg/kg/injection, schedule: Q01DX009 (ip), vehicle: saline 104 % of control

CCOCC(=O)C(C#N)c1ccc(Cl)c(Cl)c1 (configuration not stated)
inactive: [5] 94 % of control

NNc1ccnc2c1cnn2C1OC(CO)C(O)C1O (configuration not stated)
inactive: dose: 50.0 mg/kg/injection, schedule: Q01DX005 (ip), vehicle: other 105 % of control

O=[N+]([O-])c1ccc(/C=N\Nc2ccccn2)s1
inactive: dose: 100.0 mg/kg/injection, schedule: Q04DX003 (ip), vehicle: saline with Tween-80 93 % of control | dose: 200.0 mg/kg/injection, schedule: Q04DX003 (ip), vehicle: saline with Tween-80 93 % of control

CC(C)c1ccccc1O
inactive: [6] 94 % of control | [7] 95 % of control | [8] 90 % of control

c1ccc2c(c1)ccc1nc3ccc4ccccc4c3cc12
inactive: dose: 5.0 mg/kg/injection, schedule: Q01DX001 (ip), vehicle: saline 86 % of control | dose: 20.0 mg/kg/injection, schedule: Q01DX001 (ip), vehicle: saline 97 % of control | dose: 40.0 mg/kg/injection, schedule: Q01DX001 (ip), vehicle: saline 95 % of control | dose: 80.0 mg/kg/injection, schedule: Q01DX001 (ip), vehicle: saline 97 % of control

CC(C)(C)N1CCOCC1
inactive: dose: 25.0 mg/kg/injection, schedule: Q01DX009 (ip), vehicle: acetone 91 % of control | dose: 50.0 mg/kg/injection, schedule: Q01DX009 (ip), vehicle: acetone 92 % of control | dose: 100.0 mg/kg/injection, schedule: Q01DX009 (ip), vehicle: acetone 87 % of control

COc1ccc2c(O)c(Cl)c(=O)oc2c1
inactive: [2] 91 % of control | [3] 91 % of control | [4] 94 % of control

CS(=O)(=O)Nc1ccccc1-c1nc2ccccc2c(=O)o1
inactive: dose: 50.0 mg/kg/injection, schedule: Q04DX002 (ip), vehicle: Klucel (hydroxypropylcellulose) (HPC) 98 % of control | dose: 100.0 mg/kg/injection, schedule: Q04DX002 (ip), vehicle: Klucel (hydroxypropylcellulose) (HPC) 98 % of control | dose: 200.0 mg/kg/injection, schedule: Q04DX002 (ip), vehicle: Klucel (hydroxypropylcellulose) (HPC) 98 % of control | dose: 400.0 mg/kg/injection, schedule: Q04DX002 (ip), vehicle: Klucel (hydroxypropylcellulose) (HPC) 92 % of control

CCOC(=O)C(CC)c1nc2ccccc2o1 (configuration not stated)
inactive: dose: 50.0 mg/kg/injection, schedule: Q01DX009 (ip), vehicle: saline with Tween-80 109 % of control | [9] 100 % of control | [10] 95 % of control | [11] 94 % of control

CCCCCCCCCCCCOc1ccc(C(=O)O)cc1
inactive: dose: 50.0 mg/kg/injection, schedule: Q01DX001 (ip), vehicle: other 100 % of control | dose: 100.0 mg/kg/injection, schedule: Q01DX001 (ip), vehicle: other 100 % of control | dose: 200.0 mg/kg/injection, schedule: Q01DX001 (ip), vehicle: other 93 % of control | dose: 400.0 mg/kg/injection, schedule: Q01DX001 (ip), vehicle: other 93 % of control

S=c1[nH][nH]c(=S)s1
inactive: dose: 12.5 mg/kg/injection, schedule: Q01DX009 (ip), vehicle: Klucel (hydroxypropylcellulose) (HPC) 92 % of control | dose: 25.0 mg/kg/injection, schedule: Q01DX009 (ip), vehicle: Klucel (hydroxypropylcellulose) (HPC) 95 % of control | dose: 50.0 mg/kg/injection, schedule: Q01DX009 (ip), vehicle: Klucel (hydroxypropylcellulose) (HPC) 90 % of control | dose: 50.0 mg/kg/injection, schedule: Q01DX009 (ip), vehicle: saline 97 % of control | [12] 101 % of control | [13] 97 % of control

O=C(Sc1c[nH]c(=O)[nH]c1=O)c1ccc(N(CCCl)CCCl)cc1
inactive: dose: 25.0 mg/kg/injection, schedule: Q04DX003 (ip), vehicle: Klucel (hydroxypropylcellulose) (HPC) 96 % of control | dose: 50.0 mg/kg/injection, schedule: Q04DX003 (ip), vehicle: Klucel (hydroxypropylcellulose) (HPC) 102 % of control | [6] 94 % of control | [7] 100 % of control | [8] 105 % of control

COC(=O)CCNc1ccccc1
inactive: [9] 108 % of control | [10] 100 % of control | [11] 102 % of control

CCOc1cc(-c2ccc(OC)cc2)nc(N)n1
inactive: dose: 100.0 mg/kg/injection, schedule: Q04DX002 (ip), vehicle: saline with Tween-80 91 % of control | dose: 200.0 mg/kg/injection, schedule: Q04DX002 (ip), vehicle: saline with Tween-80 97 % of control | dose: 400.0 mg/kg/injection, schedule: Q04DX002 (ip), vehicle: saline with Tween-80 91 % of control

CN(C)Cc1cccc(-c2ccccc2)c1O
inactive: [13] 107 % of control | [6] 95 % of control | [2] 100 % of control | dose: 200.0 mg/kg/injection, schedule: Q01DX009 (ip), vehicle: saline 107 % of control | [7] 98 % of control | [3] 100 % of control | dose: 400.0 mg/kg/injection, schedule: Q01DX009 (ip), vehicle: saline 103 % of control | [8] 98 % of control | [4] 100 % of control

COc1cc(C=O)cc(OC)c1OC
inactive: [6] 93 % of control | [7] 93 % of control | [8] 87 % of control

O=NN(C(=O)NC1CCCCC1)C1CCCCC1
inactive: [5] 106 % of control | dose: 200.0 mg/kg/injection, schedule: Q01DX001 (ip), vehicle: carboxymethylcellulose (CMC) 106 % of control | dose: 300.0 mg/kg/injection, schedule: Q01DX001 (ip), vehicle: carboxymethylcellulose (CMC) 106 % of control | dose: 400.0 mg/kg/injection, schedule: Q01DX001 (ip), vehicle: carboxymethylcellulose (CMC) 109 % of control | dose: 500.0 mg/kg/injection, schedule: Q01DX001 (ip), vehicle: carboxymethylcellulose (CMC) 112 % of control

CC1C(O)C(O)C(C(=O)O)ON1C(=O)c1ccccc1 (configuration not stated)
inactive: dose: 100.0 mg/kg/injection, schedule: Q04DX002 (ip), vehicle: saline 100 % of control | dose: 200.0 mg/kg/injection, schedule: Q04DX002 (ip), vehicle: saline 100 % of control | dose: 400.0 mg/kg/injection, schedule: Q04DX002 (ip), vehicle: saline 110 % of control

NC(N)=NN=C(c1ccc([N+](=O)[O-])s1)c1ccc([N+](=O)[O-])s1
inactive: dose: 15.0 mg/kg/injection, schedule: Q01DX Z (ip), vehicle: carboxymethylcellulose (CMC) 97 % of control | dose: 30.0 mg/kg/injection, schedule: Q01DX Z (ip), vehicle: carboxymethylcellulose (CMC) 95 % of control | dose: 60.0 mg/kg/injection, schedule: Q01DX Z (ip), vehicle: carboxymethylcellulose (CMC) 97 % of control and 105 % of control | dose: 120.0 mg/kg/injection, schedule: Q01DX Z (ip), vehicle: carboxymethylcellulose (CMC) 94 % of control and 95 % of control | dose: 240.0 mg/kg/injection, schedule: Q01DX Z (ip), vehicle: carboxymethylcellulose (CMC) 100 % of control | dose: 480.0 mg/kg/injection, schedule: Q01DX Z (ip), vehicle: carboxymethylcellulose (CMC) 90 % of control

COc1ccc(CC(=O)NNC(=O)C2(C(C)C)OC3(O)CCCCN3C2=O)cc1OC (configuration not stated)
inactive: dose: 25.0 mg/kg/injection, schedule: Q04DX003 (ip), vehicle: saline 101 % of control | [1] 92 % of control | [2] 106 % of control | [3] 92 % of control

C[N+](C)(C)C1CCCCCCC1
inactive: dose: 75.0 mg/kg/injection, schedule: Q01DX001 (ip), vehicle: saline 96 % of control | dose: 150.0 mg/kg/injection, schedule: Q01DX001 (ip), vehicle: saline 108 % of control

Cc1ccc(CNc2ccc(C)cc2)cc1
inactive: [12] 100 % of control | [6] 98 % of control | dose: 200.0 mg/kg/injection, schedule: Q01DX009 (ip), vehicle: Klucel (hydroxypropylcellulose) (HPC) 106 % of control | [7] 100 % of control | dose: 400.0 mg/kg/injection, schedule: Q01DX009 (ip), vehicle: Klucel (hydroxypropylcellulose) (HPC) 99 % of control | [8] 95 % of control

C=C1OC(n2cnc3c(=N)n(O)cnc32)C2OC(C)(C)OC12 (configuration not stated)
inactive: dose: 100.0 mg/kg/injection, schedule: Q01DX005 (ip), vehicle: saline 96 % of control | dose: 200.0 mg/kg/injection, schedule: Q01DX005 (ip), vehicle: saline 102 % of control
